We go through ten molecules from ChEMBL document CHEMBL3232725, “2-Aryl-3H-indol-3-ones: synthesis, electrochemical behaviour and antiplasmodial activities” (Eur J Med Chem, 2014).

Series [1] deals with Plasmodium falciparum. In words: Antiplasmodial activity against chloroquine-resistant Plasmodium falciparum FcB1 infected in RBC assessed as inhibition of [3H]-hypoxanthine incorporation after 48 hrs by beta-counting. Format: functional, organism-based. Particulars: FcB1/Columbia.
Series [2] can be described thus: Cytotoxicity against human MCF7 cells after 48 hrs by XTT reduction assay. Format: cell-based. (In general: Tetrazolium assays rely on reduction of a dye to a coloured formazan, in cell work by metabolically active cells.)
The nature of series [3]: Selectivity index, ratio of CC50 for human MCF7 cells to IC50 for chloroquine-resistant Plasmodium falciparum FcB1 infected in RBC. The format is functional.

Structures are written as SMILES.

As to `O=C1C(c2ccccc2)=Nc2ccccc21`, the IC50 (in general, the concentration that inhibits the measured activity by half) in series [1] amounted to 1330 nM. Further, the CC50 (usually the concentration giving 50% cytotoxicity) at 48 h in series [2] stood at 164000 nM. For the same molecule, the “Ratio CC50/IC50” value in series [3] was 135.
For the molecule `COc1ccc(C2=Nc3ccccc3C2=O)cc1`, the IC50 in series [1] was 514 nM. The molecule further had a CC50 at 48 h in series [2] of 38000 nM. The “Ratio CC50/IC50” value in series [3] stood at 74.
As for `O=C1C(c2ccc(Cl)cc2)=Nc2ccccc21`, the concentration for half-maximal inhibition (IC50) in series [1] was 192 nM. Besides, the midpoint of cytotoxicity in series [2], the CC50 at 48 h, lay at 20300 nM. Also, the “Ratio CC50/IC50” value in series [3] is recorded as 105.
For the molecule `O=C1C(c2ccc(O)cc2)=Nc2ccccc21`, the IC50 in series [1] was found to be 101 nM. Further, half-maximal cytotoxicity in series [2] (CC50 at 48 h) was put at 130000 nM. In addition, the “Ratio CC50/IC50” value in series [3] came to 1289.
Turning to `COc1ccc2c(c1)C(=O)C(c1ccccc1)=N2`, the IC50 in series [1] was 141 nM. Further, the CC50 at 48 h in series [2] worked out at 21000 nM. For the same molecule, in series [3], the “Ratio CC50/IC50” value came out at 146.
For the molecule `COc1ccc(C2=Nc3ccc(OC)cc3C2=O)cc1`, the IC50 in series [1] was found to be 80 nM. Further, the CC50 at 48 h in series [2] is 30700 nM. For the same molecule, in series [3], the “Ratio CC50/IC50” value amounted to 381.4.
On the same counts, the results for `COc1ccc2c(c1)C(=O)C(c1ccc(N(C)C)cc1)=N2` are 49 nM, 20700 nM and 423.4.
As for `COc1ccc2c(c1)C(=O)C(c1ccc(OC(C)C)cc1)=N2`, the IC50 in series [1] was 88 nM. Further, the CC50 at 48 h in series [2] came to 11200 nM. The “Ratio CC50/IC50” value in series [3] was determined as 127.
On the same counts, the results for `COc1ccc2c(c1)C(=O)C(c1ccc(O)cc1)=N2` are 99 nM, 16000 nM and 164.
Consider `C[C@H]1[C@H](OC(=O)CCC(=O)O)O[C@@H]2O[C@@]3(C)CC[C@H]4[C@H](C)CC[C@@H]1[C@@]24OO3` [SODIUM ARESUNATE], for which, in series [1], the 50% inhibitory concentration (IC50) came out at 6 nM.
